Reference: BindingDB's records for patent US11723908 (Suzhou Zanrong Pharma, 2023)

Target: Receptor tyrosine-protein kinase erbB-2 (Homo sapiens, UniProt P04626)
Assay: BT474 Cellular Assay (HER2 Inhibition)
Description: Inhibition of phosphor HER2 was determined by enzyme-linked immunosorbent assay (ELISA) in BT474 cells. BT474 cell line was purchased from ATCC (catalog number HTB-20). Human Phospho-ErbB2 ELISA kit was purchased from R&D systems (catalog number DYC1768).

Chain of Receptor tyrosine-protein kinase erbB-2 (P04626 whole entry): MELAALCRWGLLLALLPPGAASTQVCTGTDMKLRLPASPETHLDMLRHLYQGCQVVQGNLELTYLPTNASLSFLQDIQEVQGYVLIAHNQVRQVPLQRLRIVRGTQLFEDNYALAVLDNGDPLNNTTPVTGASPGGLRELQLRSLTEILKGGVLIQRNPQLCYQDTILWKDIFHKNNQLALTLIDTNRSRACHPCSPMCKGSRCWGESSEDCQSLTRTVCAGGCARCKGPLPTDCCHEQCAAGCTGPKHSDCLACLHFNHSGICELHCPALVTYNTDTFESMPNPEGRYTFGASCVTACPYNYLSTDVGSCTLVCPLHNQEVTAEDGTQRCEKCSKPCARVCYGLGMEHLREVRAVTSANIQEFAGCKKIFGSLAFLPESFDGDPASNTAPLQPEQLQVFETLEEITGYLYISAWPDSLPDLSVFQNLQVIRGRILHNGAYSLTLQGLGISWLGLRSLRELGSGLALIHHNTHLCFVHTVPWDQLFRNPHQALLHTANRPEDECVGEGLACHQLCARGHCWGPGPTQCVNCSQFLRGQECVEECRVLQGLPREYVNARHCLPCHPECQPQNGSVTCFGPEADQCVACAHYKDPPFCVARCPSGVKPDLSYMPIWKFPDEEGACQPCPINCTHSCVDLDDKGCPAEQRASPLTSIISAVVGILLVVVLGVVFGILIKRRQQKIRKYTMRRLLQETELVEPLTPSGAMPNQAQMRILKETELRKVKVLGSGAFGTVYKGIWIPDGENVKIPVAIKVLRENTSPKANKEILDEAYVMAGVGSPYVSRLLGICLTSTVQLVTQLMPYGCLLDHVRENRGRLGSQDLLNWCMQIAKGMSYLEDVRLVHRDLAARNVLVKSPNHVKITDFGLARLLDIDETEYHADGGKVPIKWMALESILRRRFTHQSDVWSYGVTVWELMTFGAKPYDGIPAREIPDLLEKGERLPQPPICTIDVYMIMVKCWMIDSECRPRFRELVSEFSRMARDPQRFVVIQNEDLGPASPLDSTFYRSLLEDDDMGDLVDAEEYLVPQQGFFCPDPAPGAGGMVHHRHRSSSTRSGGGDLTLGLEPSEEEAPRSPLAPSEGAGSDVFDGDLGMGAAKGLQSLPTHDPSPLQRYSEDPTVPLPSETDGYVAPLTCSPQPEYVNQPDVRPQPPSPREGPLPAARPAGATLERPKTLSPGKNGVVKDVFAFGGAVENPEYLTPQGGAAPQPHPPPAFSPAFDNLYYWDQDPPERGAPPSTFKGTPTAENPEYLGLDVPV

Molecule `Cc1cc(Nc2ncnc3ccc(OC(F)(F)F)c(O[C@H]4CCN(C)CC4(F)F)c23)ccc1Oc1cc2ncnn2cn1` [US11723908, Example 73] has an IC50 of 145 nM.
